Test results: PMC6737077, “DFMD: Fast and Effective DelPhiForce Steered Molecular Dynamics Approach to Model Ligand Approach Toward a Receptor: Application to Spermine Synthase Enzyme” (Frontiers in Molecular Biosciences, 2019)
Where a chain is given by its changes, count along the chain named.

Tests used:
Test in all cases: intrinsic protein fluorescence titration (ex […] nm, em […]-345 nm)
Format in all cases: binding
[1] = target: T1, human spermine synthase (SpmSyn) (Homo sapiens, UniProt P52788, D201A)
T1 construct: gene SMS; wild-type human SpmSyn expression construct of Wu et al. 2008; expressed in E. coli Rosetta 2, purified; homo-dimer
T1 sequence (P52788 2-366 D201A): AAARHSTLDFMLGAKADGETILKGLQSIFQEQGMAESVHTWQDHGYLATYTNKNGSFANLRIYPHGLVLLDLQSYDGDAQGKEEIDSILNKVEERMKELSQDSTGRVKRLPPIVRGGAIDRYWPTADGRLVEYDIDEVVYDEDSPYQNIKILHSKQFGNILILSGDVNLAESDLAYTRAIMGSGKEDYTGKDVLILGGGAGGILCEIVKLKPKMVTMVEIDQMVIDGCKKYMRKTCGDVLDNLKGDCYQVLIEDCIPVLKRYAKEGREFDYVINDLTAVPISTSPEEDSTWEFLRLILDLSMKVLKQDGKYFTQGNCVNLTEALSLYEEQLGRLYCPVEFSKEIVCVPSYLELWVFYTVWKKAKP

[2] = target: T2, human spermine synthase (SpmSyn) (Homo sapiens, UniProt P52788, G56S)
T2 construct: gene SMS; wild-type human SpmSyn expression construct of Wu et al. 2008; expressed in E. coli Rosetta 2, purified; homo-dimer
T2 sequence (P52788 2-366 G56S): T1 sequence (P52788 2-366 D201A) with G55S, A200D

[3] = target: T3, human spermine synthase (SpmSyn) (Homo sapiens, UniProt P52788)
T3 construct: gene SMS; wild-type human SpmSyn expression construct of Wu et al. 2008; expressed in E. coli Rosetta 2, purified; homo-dimer
T3 sequence (P52788 2-366): T1 sequence (P52788 2-366 D201A) with A200D

## C[S+](CC[C@H](N)C(=O)O)C[C@H]1O[C@@H](n2cnc3c(N)ncnc32)[C@H](O)[C@@H]1O (stereo partly drawn) [AdoMet]
[1]
  Kd: 1020 ± 69 µM
[2]
  Kd: 410 ± 57 µM
[3]
  Kd: 272 ± 24 µM
